Legend:
Assay type in all cases: in vivo
[1] = test system: Digitaria ciliaris; assay: Test Example 4: herbicidal effect test by stem and leaf treatment in upland field; conditions: Digitaria ciliaris; 120 g per 10 ares; sprayed seven days after sowing, upland soil; 14 days after application; read-out: weed inhibition rate
[2] = test system: Echinochloa crus-galli; assay: as above; conditions: Echinochloa crus-galli; 120 g per 10 ares; sprayed seven days after sowing, upland soil; 14 days after application; read-out: weed inhibition rate
[3] = test system: Digitaria ciliaris; assay: Test Example 8: herbicidal effect test by stem and leaf treatment in upland field (low dose); conditions: Digitaria ciliaris; 7.5 g per 10 ares; sprayed seven days after sowing, upland soil; 14 days after application; read-out: weed inhibition rate
[4] = test system: Echinochloa crus-galli; assay: as above; conditions: Echinochloa crus-galli; 7.5 g per 10 ares; sprayed seven days after sowing, upland soil; 14 days after application; read-out: weed inhibition rate
[5] = test system: Digitaria ciliaris; assay: Test Example 3: herbicidal effect test by soil application in upland field; conditions: Digitaria ciliaris, 120 g per 10 ares, sprayed one day after sowing, 14 days after application, read-out: weed inhibition rate
Method in brief: (§1)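 Pre-emergence test: seeds mixed into top 1 cm of alluvial loam upland soil in pots; emulsifiable concentrate diluted in water sprayed on soil one day after sowing at 100 L/10 a, 120 g a.i./10 a. Weed inhibition rate (%) scored at 14 days, in duplicate.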

[6] = test system: Echinochloa crus-galli; assay: as above; conditions: Echinochloa crus-galli, 120 g per 10 ares, sprayed one day after sowing, 14 days after application, read-out: weed inhibition rate
Method in brief: as §1

[7] = test system: Scirpus juncoides; assay: Test Example 1: herbicidal effect test by soil application in paddy rice; conditions: Schoenoplectiella juncoides, soil, 336 h; 120 g active ingredient per 10 ares; applied immediately after sowing, flooded pots; 14 days after application; read-out: weed inhibition rate
Method in brief: (§2)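 Paddy soil in Wagner pots (1/10,000 acre), fertilized and puddled; 30 seeds per species sown at 0–1 cm, flooded to ~3 cm, greenhouse. Water-diluted emulsifiable concentrate dropped onto flooded pots right after sowing at 120 g active ingredient per 10 ares.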

[8] = test system: Echinochloa crus-galli var. formosensis; assay: as above; conditions: Echinochloa crus-galli, soil, 336 h; 120 g active ingredient per 10 ares; applied immediately after sowing, flooded pots; 14 days after application; read-out: weed inhibition rate
Method in brief: as §2

[9] = test system: Echinochloa crus-galli var. formosensis; assay: Test Example 5: herbicidal effect test by soil application in paddy rice (low dose); conditions: Echinochloa crus-galli, soil, 336 h; 7.5 g per 10 ares; applied immediately after sowing, flooded pots; 14 days after application; read-out: weed inhibition rate
Method in brief: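 Paddy soil in Wagner pots was fertilized (N:P:K 16:16:16), puddled, sown with 30 seeds per weed species at 0–1 cm, then flooded to ~3 cm in a glass greenhouse. Emulsifiable concentrate diluted in water was dropper-applied into floodwater immediately, at 7.5 g active ingredient per 10 ares; duplicates, scored at 14 days.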

[10] = test system: Digitaria ciliaris; assay: Test Example 7: herbicidal effect test by soil application in upland field (low dose); conditions: Digitaria ciliaris, 7.5 g per 10 ares, sprayed one day after sowing, 14 days after application, read-out: weed inhibition rate
Method in brief: (§3)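 Pre-emergence soil application: upland alluvial loam pots sown with weed seeds mixed into the top 1 cm; one day after sowing, a water-diluted emulsifiable concentrate was sprayed on the soil at 100 L per 10 a, delivering 7.5 g active ingredient per 10 a. Weed inhibition rate (%) scored 14 days after application, duplicate pots.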

[11] = test system: Echinochloa crus-galli; assay: as above; conditions: Echinochloa crus-galli, 7.5 g per 10 ares, sprayed one day after sowing, 14 days after application, read-out: weed inhibition rate
Method in brief: as §3

[12] = test system: Echinochloa crus-galli var. formosensis; assay: Test Example 6: herbicidal effect test by application during growth period of paddy rice (low dose); conditions: Echinochloa crus-galli; 7.5 g per 10 ares; applied seven days after sowing, flooded pots; 14 days after application; read-out: weed inhibition rate
Method in brief: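 Low-dose water application, 7.5 g a.i. per 10 ares, given by dropper into flooded pots (about 3 cm depth) 7 days after sowing of 30 weed seeds each at 0–1 cm. Evaluation of inhibition (%) took place 14 days later, duplicate per rate.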

[13] = test system: Scirpus juncoides; assay: Test Example 2: herbicidal effect test by application during growth period of paddy rice; conditions: Schoenoplectiella juncoides; 120 g per 10 ares; applied seven days after sowing, flooded pots; 14 days after application; read-out: weed inhibition rate
Method in brief: (§4)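 Paddy soil in Wagner pots was puddled with N:P:K 16:16:16 fertilizer, sown with 30 weed seeds per species at 0–1 cm and flooded to about 3 cm. Seven days after sowing, a water-diluted emulsifiable concentrate was dropped onto the water at 120 g active ingredient per 10 ares. Weed inhibition (%) was scored at 14 days, in duplicate.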

[14] = test system: Echinochloa crus-galli var. formosensis; assay: as above; conditions: Echinochloa crus-galli; 120 g per 10 ares; applied seven days after sowing, flooded pots; 14 days after application; read-out: weed inhibition rate
Method in brief: as §4

CC(C)[C@]12C[C@@H](OCc3cccs3)[C@](C)(C[C@@H]1Cl)O2 [1-661, (1R,2S,4S,5R)-2-chloro-1-isopropyl-4-methyl-5-(2-thienylmethoxy)-7-oxabicyclo[2.2.1]heptane]
≥ 80%: inhibition at 1200 g/ha [1] | inhibition at 1200 g/ha [2] | inhibition at 75 g/ha [3] | inhibition at 75 g/ha [4] | inhibition at 1200 g/ha [5] | inhibition at 1200 g/ha [6] | pest or weed control at 1200 g/ha [7] | pest or weed control at 1200 g/ha [8] | inhibition at 75 g/ha [9] | inhibition at 75 g/ha [10] | inhibition at 75 g/ha [11] | inhibition at 75 g/ha [12] | inhibition at 1200 g/ha [13] | inhibition at 1200 g/ha [14]

CCNC(=O)O[C@H]1C[C@]2(C)O[C@@]1(C(C)C)C[C@H]2OCc1ccccc1F [1-1615, [(1R,2S,4S,5R)-5-[(2-fluorophenyl)methoxy]-1-isopropyl-4-methyl-7-oxabicyclo[2.2.1]heptan-2-yl] N-ethylcarbamate]
≥ 80%: inhibition at 1200 g/ha [1] | inhibition at 1200 g/ha [2] | inhibition at 75 g/ha [3] | inhibition at 75 g/ha [4] | inhibition at 1200 g/ha [5] | inhibition at 1200 g/ha [6] | pest or weed control at 1200 g/ha [7] | pest or weed control at 1200 g/ha [8] | inhibition at 75 g/ha [9] | inhibition at 75 g/ha [10] | inhibition at 75 g/ha [11] | inhibition at 75 g/ha [12] | inhibition at 1200 g/ha [13] | inhibition at 1200 g/ha [14]

Cc1ccccc1COC1CC2(C(C)C)OC1(C)CC2I (centres unmarked) [1-1409, 5-iodo-1-methyl-2-[(2-methylphenyl)methoxy]-4-isopropyl-7-oxabicyclo[2.2.1]heptane]
≥ 80%: inhibition at 1200 g/ha [1] | inhibition at 1200 g/ha [2] | inhibition at 75 g/ha [3] | inhibition at 75 g/ha [4] | inhibition at 1200 g/ha [5] | inhibition at 1200 g/ha [6] | pest or weed control at 1200 g/ha [7] | pest or weed control at 1200 g/ha [8] | inhibition at 75 g/ha [9] | inhibition at 75 g/ha [10] | inhibition at 75 g/ha [11] | inhibition at 75 g/ha [12] | inhibition at 1200 g/ha [13] | inhibition at 1200 g/ha [14]

CC#CCOC1C[C@]2(C(C)C)O[C@@]1(C)C[C@@H]2OC (mixture of isomers) [1-801, (1R,2S,4S,SR)-5-but-2-ynoxy-1-isopropyl-2-methoxy-4-methyl-7-oxabicyclo[2.2.1]heptane]
≥ 80%: inhibition at 1200 g/ha [1] | inhibition at 1200 g/ha [2] | inhibition at 75 g/ha [3] | inhibition at 75 g/ha [4] | inhibition at 1200 g/ha [5] | inhibition at 1200 g/ha [6] | pest or weed control at 1200 g/ha [7] | pest or weed control at 1200 g/ha [8] | inhibition at 75 g/ha [9] | inhibition at 75 g/ha [10] | inhibition at 75 g/ha [11] | inhibition at 75 g/ha [12] | inhibition at 1200 g/ha [13] | inhibition at 1200 g/ha [14]

CC(C)C12CC(OCc3ccccc3Cl)C(C)(CC1I)O2 (centres unmarked) [1-1424, 5-[(2-chlorophenyl)methoxy]-2-iodo-1-isopropyl-4-methyl-7-oxabicyclo[2.2.1]heptane]
≥ 80%: inhibition at 1200 g/ha [1] | inhibition at 1200 g/ha [2] | inhibition at 75 g/ha [3] | inhibition at 75 g/ha [4] | inhibition at 1200 g/ha [5] | inhibition at 1200 g/ha [6] | pest or weed control at 1200 g/ha [7] | pest or weed control at 1200 g/ha [8] | inhibition at 75 g/ha [9] | inhibition at 75 g/ha [10] | inhibition at 75 g/ha [11] | inhibition at 75 g/ha [12] | inhibition at 1200 g/ha [13] | inhibition at 1200 g/ha [14]

CC(C)[C@]12C[C@@H](OCc3ccccc3F)[C@](C)(C[C@@H]1C)O2 (racemic) [1-1555, (1SR,2RS,4RS,5SR)-2-[(2-fluorophenyl)methoxy]-1,5-dimethyl-4-isopropyl-7-oxabicyclo[2.2.1]heptane]
≥ 80%: inhibition at 1200 g/ha [1] | inhibition at 1200 g/ha [2] | inhibition at 75 g/ha [3] | inhibition at 75 g/ha [4] | inhibition at 1200 g/ha [5] | inhibition at 1200 g/ha [6] | pest or weed control at 1200 g/ha [7] | pest or weed control at 1200 g/ha [8] | inhibition at 75 g/ha [9] | inhibition at 75 g/ha [10] | inhibition at 75 g/ha [11] | inhibition at 75 g/ha [12] | inhibition at 1200 g/ha [13] | inhibition at 1200 g/ha [14]

CC(C)C12CC(OCc3ccccc3)C(C)(CC1Br)O2 (centres unmarked) [1-1342, 5-bromo-1-methyl-2-phenylmethoxy-4-isopropyl-7-oxabicyclo[2.2.1]heptane]
≥ 80%: inhibition at 1200 g/ha [1] | inhibition at 1200 g/ha [2] | inhibition at 75 g/ha [3] | inhibition at 75 g/ha [4] | inhibition at 1200 g/ha [5] | inhibition at 1200 g/ha [6] | pest or weed control at 1200 g/ha [7] | pest or weed control at 1200 g/ha [8] | inhibition at 75 g/ha [9] | inhibition at 75 g/ha [10] | inhibition at 75 g/ha [11] | inhibition at 75 g/ha [12] | inhibition at 1200 g/ha [13] | inhibition at 1200 g/ha [14]

CC(C)=CCOC1CC2(C(C)C)OC1(C)CC2I (centres unmarked) [1-1400, 5-iodo-1-methyl-2-(3-methylbut-2-enoxy)-4-isopropyl-7-oxabicyclo[2.2.1]heptane]
≥ 80%: inhibition at 1200 g/ha [1] | inhibition at 1200 g/ha [2] | inhibition at 75 g/ha [3] | inhibition at 75 g/ha [4] | inhibition at 1200 g/ha [5] | inhibition at 1200 g/ha [6] | pest or weed control at 1200 g/ha [7] | pest or weed control at 1200 g/ha [8] | inhibition at 75 g/ha [9] | inhibition at 75 g/ha [10] | inhibition at 75 g/ha [11] | inhibition at 75 g/ha [12] | inhibition at 1200 g/ha [13] | inhibition at 1200 g/ha [14]

CC(C)[C@]12C[C@@H](OCc3cccs3)[C@](C)(C[C@@H]1I)O2 [1-788, (1R,2S,4S,5R)-2-iodo-1-isopropyl-4-methyl-5-(2-thienylmethoxy)-7-oxabicyclo[2.2.1]heptane]
≥ 80%: inhibition at 1200 g/ha [1] | inhibition at 1200 g/ha [2] | inhibition at 75 g/ha [3] | inhibition at 75 g/ha [4] | inhibition at 1200 g/ha [5] | inhibition at 1200 g/ha [6] | pest or weed control at 1200 g/ha [7] | pest or weed control at 1200 g/ha [8] | inhibition at 75 g/ha [9] | inhibition at 75 g/ha [10] | inhibition at 75 g/ha [11] | inhibition at 75 g/ha [12] | inhibition at 1200 g/ha [13] | inhibition at 1200 g/ha [14]

CC(C)[C@]12C[C@@H](OCc3ccccc3Br)[C@](C)(C[C@@H]1I)O2 [1-759, (1R,2S,4S,5R)-5-[(2-bromophenyl)methoxy]-2-iodo-1-isopropyl-4-methyl-7-oxabicyclo[2.2.1]heptane]
≥ 80%: inhibition at 1200 g/ha [1] | inhibition at 1200 g/ha [2] | inhibition at 75 g/ha [3] | inhibition at 75 g/ha [4] | inhibition at 1200 g/ha [5] | inhibition at 1200 g/ha [6] | pest or weed control at 1200 g/ha [7] | pest or weed control at 1200 g/ha [8] | inhibition at 75 g/ha [9] | inhibition at 75 g/ha [10] | inhibition at 75 g/ha [11] | inhibition at 75 g/ha [12] | inhibition at 1200 g/ha [13] | inhibition at 1200 g/ha [14]

Source: EP4707280A1, “1,4-CINEOLE DERIVATIVE AND INTERMEDIATE THEREOF, HERBICIDE CONTAINING SAID DERIVATIVE AS ACTIVE INGREDIENT, METHOD FOR USING HERBICIDE, AND METHOD FOR PREPARING AGROCHEMICAL COMPOSITION” (HOKKO CHEMICAL INDUSTRY CO., LTD., priority 2023, dated 2024)
